Laboratory results published in patent US20170166974A1, “METHOD FOR THE TREATMENT OF MULTIPLE MYELOMA” (Erasmus University Medical CEnter Rotherdam, priority 2014, published 2017).

Test system: multiple myeloma patients
Experiment: Survival analysis (PFS and OS) of multiple myeloma patients by molecular cluster, HOVON-65/GMMG-HD4 phase III trial, PAD vs VAD
Format: in vivo, human
Method: Survival analysis was performed on a group of 301 MM patients, treated with Bortezomib (treated with PAD, a combination of bortezomib, adriamycin, and dexamethasone)) or conventional therapy (treated with VAD, a combination of vincristine, adriamycin, and dexamethasone). The patient group was stratified into ten clusters (Table 1).
A total number of 833 patients were included in a large prospective, randomized, phase III trial (HOVON-65/GMMG-HD4). Patients were randomly assigned to three cycles of induction treatment with vincristine, doxorubicin, and dexamethasone (VAD), or Bortezomib, doxorubicin, and dexamethasone (PAD). Both groups received high-dose melphalan with autologous stem-cell rescue followed by maintenance treatment with thalidomide (group assigned to VAD) or Bortezomib (group assigned to PAD) for 2 years (Sonneveld et al., J. Clin. Oncol. Vol. 30, 24:2946-2955, 2012).
The gene expression dataset GSE19784 was used, derived from patients included in the HOVON-65/GMMG-HD4 trial (Broyl et al., Blood 2010 116:2543-2553). A total number of 320 patients were included in the molecular classification and follow-up data were available for 319 patients. Clusters with less than ten patients were not included in this study, the total number of patients was, therefore, 301 (Table 1). Progression-free survival (PFS) was calculated from randomization until progression, relapse or death, whichever came first. Patients who received a non-myeloablative allogeneic stem cell transplantation (AlloSCT) were censored at the date of AlloSCT. Overall survival (OS) was measured from randomization until death from any cause. Patients alive at the date of last contact were censored. The median follow-up was 41 months. Survival analysis was performed using the SPSS software. Kaplan
Meier analysis was performed using the log rank test to assess for significance in survival time between clusters.

CC(C)C[C@H](NC(=O)[C@H](Cc1ccccc1)NC(=O)c1cnccn1)B(O)O [Bortezomib]
median PFS (CD-2 cluster): 32 months | difference in median PFS, conventional vs Bortezomib (CTA cluster): no difference | median OS (MF cluster): 54 months | median PFS (MF cluster): 27 months | PFS longer than in conventional treatment group (MS cluster): 6 months | median OS (MS cluster): > 41 months | median PFS (Myeloid cluster): 32 months | median PFS (NF-κB cluster): 32 months | median OS (PR cluster): 22 months | median PFS (PR cluster): 19 months | difference in median PFS, conventional vs Bortezomib (hyperdiploid cluster): no difference
